Assay results reported in patent publication US9409864B2, “Sulfonamide TRPA1 receptor antagonists” (ARIO PHARMA LIMITED, priority 2013, dated 2016).
Read-outs that look alike come from different tables or passages of the source.

What was measured:
[1] = test system: PF-4840154-induced mechanical hyperalgesia in rats; test: Agonist (PF-4840154)-induced mechanical hyperalgesia in rats; type: in vivo; conditions: Rattus norvegicus, 30 μmol/kg oral, PF-4840154 0.05 nmol/50 μl/paw intraplantar
Excerpt: Agonist (PF-4840154)-Induced Mechanical Hyperalgesia in Rats
The method is used to investigate the anti-hyperalgesic effects of the compounds listed in the present invention following agonist (PF-4840154)-induced hyperalgesic responses. The activity is indicative of TRPA1 receptor occupancy following oral dosing. Specifically, male SD rats (Charles River, Italy) weighing 70-100 g. were used. The anti-hyperalgesic effects were investigated using the electronic dynamometer test. PF-4840154 (Sigma, USA) was used to induce mechanical hyperalgesia. Local, intraplantar injection of PF-4840154 at 0.05 nmol/50 μl/paw caused the reduction of the hind paw withdrawal response induced by mechanical stimuli. Mechanical stimulation was induced in basal condition and 30, 60, 120, 180 and 240 minutes after the oral administration of the antagonists dissolved in 2.5% DMSO and 30% Solutol. Compounds were orally administered (30 μmol/kg/10 ml) to rats 1 hour before the injection of PF-4840154 into the plantar surface of a rat's hind using a micro syringe.

[2] = biological target: T1, native human TRPA1 receptors (Homo sapiens, UniProt O75762); test: PF-4840154 (1 μM)-induced Ca2+ fluorescence measurements in A549 cell line; type: cell-based; conditions: for inhibition at 10 µM: 10 μM compound against 1 μM PF-4840154, A549 cells; for IC50: against PF-4840154 (1 μM)-evoked [Ca2+]i mobilization, A549 cells
T1 construct: stably expressing native human TRPA1 receptors were used; endogenous in cells; host or cells: A549 human lung adenocarcinoma epithelial cell line
T1 sequence (O75762 whole entry): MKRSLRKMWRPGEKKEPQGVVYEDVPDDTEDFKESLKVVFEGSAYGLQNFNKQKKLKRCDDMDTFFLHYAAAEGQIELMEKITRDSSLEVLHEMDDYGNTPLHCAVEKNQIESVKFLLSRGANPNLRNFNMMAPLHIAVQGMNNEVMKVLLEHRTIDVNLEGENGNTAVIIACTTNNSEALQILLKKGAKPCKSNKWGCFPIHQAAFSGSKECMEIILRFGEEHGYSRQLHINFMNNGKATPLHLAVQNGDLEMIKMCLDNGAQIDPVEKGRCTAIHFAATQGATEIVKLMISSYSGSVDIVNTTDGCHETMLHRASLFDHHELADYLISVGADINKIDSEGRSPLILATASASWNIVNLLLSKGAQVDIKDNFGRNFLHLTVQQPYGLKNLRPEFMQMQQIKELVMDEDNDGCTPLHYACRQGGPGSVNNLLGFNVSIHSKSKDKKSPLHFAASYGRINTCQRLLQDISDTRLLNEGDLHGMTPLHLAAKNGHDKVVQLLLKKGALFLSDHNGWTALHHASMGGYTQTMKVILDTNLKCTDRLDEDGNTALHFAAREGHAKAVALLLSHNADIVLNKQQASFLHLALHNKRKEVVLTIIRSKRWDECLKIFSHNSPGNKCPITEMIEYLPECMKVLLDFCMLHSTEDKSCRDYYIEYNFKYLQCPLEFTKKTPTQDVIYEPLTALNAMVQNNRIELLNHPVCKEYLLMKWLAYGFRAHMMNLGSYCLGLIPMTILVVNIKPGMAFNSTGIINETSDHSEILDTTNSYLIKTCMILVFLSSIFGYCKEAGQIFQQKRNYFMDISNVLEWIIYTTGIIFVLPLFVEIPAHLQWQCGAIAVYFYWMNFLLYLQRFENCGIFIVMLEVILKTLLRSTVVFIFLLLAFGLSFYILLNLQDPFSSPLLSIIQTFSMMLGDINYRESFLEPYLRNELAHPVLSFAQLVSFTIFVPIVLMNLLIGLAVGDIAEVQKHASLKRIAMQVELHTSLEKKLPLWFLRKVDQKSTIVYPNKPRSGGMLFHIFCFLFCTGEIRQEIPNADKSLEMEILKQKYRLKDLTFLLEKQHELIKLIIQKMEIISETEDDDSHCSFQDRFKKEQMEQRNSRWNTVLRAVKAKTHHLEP
Summary of the method: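 A549 cells stably expressing native human TRPA1, Fluo-4 AM loaded; fluorescence Ca2+ read in HBSS with probenecid and Brilliant Black at 36.5 °C. Compounds tested alone for agonism and against 1 μM PF-4840154 for inhibition at initial 10 μM; IC50 from full concentration-response curves for selected compounds.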

[3] = biological target: T2, TRPA1 (cultured rat dorsal root ganglia neurons) (Rattus norvegicus, UniProt Q6RI86); test: PF-4840154 (10 μM)-induced Ca2+ fluorescence measurements in cultured rat dorsal root ganglia neurons; type: cell-based; conditions: against 10 μM PF-4840154-induced [Ca2+]i mobilization, primary culture of rat dorsal ganglia neurons
T2 construct: calcium assay data obtained in primary culture of rat dorsal ganglia neurons; from tissue; host or cells: primary culture of dorsal root ganglia neurons from male SD rats
T2 sequence (Q6RI86 whole entry): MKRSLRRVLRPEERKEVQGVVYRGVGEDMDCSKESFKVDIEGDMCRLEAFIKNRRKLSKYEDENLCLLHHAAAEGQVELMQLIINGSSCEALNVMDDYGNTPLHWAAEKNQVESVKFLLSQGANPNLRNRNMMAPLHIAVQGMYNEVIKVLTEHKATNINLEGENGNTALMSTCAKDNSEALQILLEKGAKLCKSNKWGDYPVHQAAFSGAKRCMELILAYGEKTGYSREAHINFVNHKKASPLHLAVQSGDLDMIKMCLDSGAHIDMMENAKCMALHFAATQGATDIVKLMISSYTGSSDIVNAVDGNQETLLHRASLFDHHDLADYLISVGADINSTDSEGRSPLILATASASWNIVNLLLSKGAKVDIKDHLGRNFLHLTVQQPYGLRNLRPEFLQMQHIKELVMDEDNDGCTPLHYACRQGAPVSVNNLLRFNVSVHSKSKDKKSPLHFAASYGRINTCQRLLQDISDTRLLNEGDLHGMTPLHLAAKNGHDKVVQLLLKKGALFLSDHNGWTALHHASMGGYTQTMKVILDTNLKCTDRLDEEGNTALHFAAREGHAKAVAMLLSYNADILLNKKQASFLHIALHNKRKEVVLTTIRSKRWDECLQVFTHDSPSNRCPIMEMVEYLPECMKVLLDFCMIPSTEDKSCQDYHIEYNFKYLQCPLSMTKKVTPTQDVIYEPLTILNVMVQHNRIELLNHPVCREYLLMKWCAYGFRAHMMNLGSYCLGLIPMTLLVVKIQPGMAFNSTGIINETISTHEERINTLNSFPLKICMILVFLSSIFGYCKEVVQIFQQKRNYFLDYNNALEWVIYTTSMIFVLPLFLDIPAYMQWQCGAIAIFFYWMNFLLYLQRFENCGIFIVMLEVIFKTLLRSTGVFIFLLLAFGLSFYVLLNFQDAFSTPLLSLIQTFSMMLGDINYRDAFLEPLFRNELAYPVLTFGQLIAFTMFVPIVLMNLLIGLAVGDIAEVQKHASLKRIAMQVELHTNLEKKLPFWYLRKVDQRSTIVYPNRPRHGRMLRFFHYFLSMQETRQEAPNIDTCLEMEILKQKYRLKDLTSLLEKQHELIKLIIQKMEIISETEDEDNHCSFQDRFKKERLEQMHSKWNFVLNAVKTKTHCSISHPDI
Protocol: PF-4840154 (10 μM)-Induced Ca^2+ Fluorescence Measurements in Cultured Rat Dorsal Root Ganglia Neurons
Male SD rats (˜50 g, Charles River, Italy) were terminally anaesthetized and decapitated. Dorsal root ganglia were removed and placed in cold Hank's balanced salt solution (HBSS) before being transferred to collagenase (2 mg/ml) and trypsin (1 mg/ml) for 35 min at 37° C. The ganglia, placed in cold DMEM supplemented with 10% fetal bovine serum, 10% horse serum, 2 mM L-glutamine, 100 U/ml penicillin and 100 μg/ml streptomycin, were dissociated in single cells by several passages through a series of syringe needles (23G down to 25G). The medium and the ganglia were filtered to remove debris, topped up with 4 ml of DMEM medium and centrifuged (1100 rpm for 6 min). The final cell pellet was re-suspended in DMEM medium [supplemented with 100 ng/ml mouse Nerve Growth Factor (mouse-NGF-7S) and cytosine-β-D-arabinofuranoside free base (ARA-C) 2.5 μM]. The cells were plated on poly-L-lysine (8.3 μM)- and laminin (5 μM)-coated 25 mm glass cover slips and kept for 2 days at 37° C. in a humidified incubator gassed with 5% CO2 and air, then treated with Fura-2-AM-ester (5 μM) in a Ca^2+ buffer solution having the following composition (mM): CaCl2 1.4, KCl 5.4, MgSO4 0.4, NaCl 135, D-glucose 5, HEPES 10 with BSA (0.1%), at pH 7.4, for 40 min at 37° C. The cells were then washed twice with the Ca^2+ buffer solution and transferred to a chamber on the stage of a Nikon eclipse TE300 microscope. Fura-2-AM-ester was excited at […] to indicate relative [Ca^2+]i changes by the F340/F380 ratio recorded with a dynamic image analysis system (Laboratory Automation 2.0, RCS, Florence, Italy) and the cells were allowed (at least 10 min) to attain a stable fluorescence before beginning the experiment. A calibration curve was set up using buffer containing Fura-2-AM-ester and determinant concentrations of free Ca^2+. This curve was then used to convert the data obtained from the F340/F380 ratio to [Ca^2+]i (nM).
All exemplified compounds were tested at the concentration of 10 μM against the calcium uptake induced by 10 μM PF-4840154. For selected examples, the entire concentration response curves were constructed and the respective IC50 value calculated.

[4] = test system: oxaliplatin-induced mechanical hyperalgesia in rats; test: Oxaliplatin-induced mechanical hyperalgesia in rats; type: in vivo; conditions: Rattus norvegicus, 168 h, 30 μmol/kg oral, 7 days post i.v. oxaliplatin 2.5 mg/kg
Protocol: Oxaliplatin-Induced Mechanical Hyperalgesia in Rats
The method described by Nassini et al. (Pain, 2011, 152(7), 1621-31) was used with minor modifications. Restrained rats were treated with a single intravenous bolus injection of oxaliplatin (2.5 mg/kg) dissolved in normal saline. This approach was sufficient to elicit reproducible allodynic behaviour evident 3 days post injection and during the day thereafter. For convenience all acute experiments were conducted 7 days post injection when compounds were orally administered at 30 μmol/kg.

[5] = read-out: % of reversal of mechanical allodynia
[6] = read-out: Maximal inhibition (%)

SMILES	inhibition in vivo at 30 µmol/kg [1, 5] [%]	inhibition in vivo at 30 µmol/kg [1, 6] [%]	inhibition at 10 µM [2] [%]	IC50 [2] [nM]	IC50 [3] [nM]	inhibition in vivo at 30 µmol/kg [4, 5] [%]	inhibition in vivo at 30 µmol/kg [4, 6] [%]
C=C(C(=O)NCc1cc(-c2ccc(C(F)(F)F)cc2)nc(-c2ccc(C(F)(F)F)cc2)c1)N(CC)S(=O)(=O)c1ccc(Cl)cc1 [Example 19, N-[[2,6-bis[4-(trifluoromethyl)phenyl]-4-pyridyl]methyl]-2-[(4-chlorophenyl)sulfonyl-ethyl-amino]prop-2-enamide]	74	74	100	74	68		
C=C(C(=O)NCc1cc(-c2ccc(C(F)(F)F)cc2)nc(N2CCCC2)c1)N(CC)S(=O)(=O)c1ccc(Cl)cc1 [Example 14, 2-[(4-chlorophenyl)sulfonyl-ethyl-amino]-N-[[2-pyrrolidin-1-yl-6-[4-(trifluoromethyl)phenyl]-4-pyridyl]methyl]prop-2-enamide]	75	75	100	40	60		
C=C(C(=O)NCc1ccnc(-c2ccc(OC(F)(F)F)cc2)c1)N(CC)S(=O)(=O)c1ccc(Cl)s1 [Example 7, 2-[(5-chloro-2-thienyl)sulfonyl-ethyl-amino]-N-[[2-[4-(trifluoromethoxy)phenyl]-4-pyridyl]methyl]prop-2-enamide]	74	74	100	36	29		
C=C(C(=O)NCc1cc(-c2ccc(C(F)(F)F)cc2)nc(N2CCCC2)c1)N(CC)S(=O)(=O)c1ccc(Cl)s1 [Example 15, 2-[(5-chloro-2-thienyl)sulfonyl-ethyl-amino]-N-[[2-pyrrolidin-1-yl-6-[4-(trifluoromethyl)phenyl]-4-pyridyl]methyl]prop-2-enamide]	72	72	100	22	32		
C=C(C(=O)NCc1cccc(-c2ccc(OC(F)(F)F)cc2)c1)N(CC)S(=O)(=O)c1ccc(F)cc1 [Example 11, 2-[ethyl-(4-fluorophenyl)sulfonyl-amino]-N-[[3-[4-(trifluoromethoxy)phenyl]phenyl]methyl]prop-2-enamide]	72	72	99	17	20		
C=C(C(=O)NCc1cc(-c2ccc(C(F)(F)F)cc2)nc(N2CCCC2)c1)N(CC)S(=O)(=O)c1ccc(F)cc1 [Example 38, 2-[ethyl-(4-fluorophenyl)sulfonyl-amino]-N-[[2-pyrrolidin-1-yl-6-[4-(trifluoromethyl)phenyl]-4-pyridyl]methyl]prop-2-enamide]	87	87	100	17	14		
C=C(C(=O)NCc1cccc(-c2ccc(C(F)(F)F)cc2)c1)N(CC)S(=O)(=O)c1ccc(Cl)cc1 [Example 10, 2-[(4-chlorophenyl)sulfonyl-ethyl-amino]-N-[[3-[4-(trifluoromethyl)phenyl]phenyl]methyl]prop-2-enamide]	63	63	99	25	47		
C=C(C(=O)NCc1ccnc(-c2ccc(C(F)(F)F)cc2)c1)N(CC)S(=O)(=O)c1ccc(F)cc1 [Example 1, 2-[ethyl-(4-fluorophenyl)sulfonyl-amino]-N-[[2-[4-(trifluoromethyl)phenyl]-4-pyridyl]methyl]prop-2-enamide]	80	80	100	15	14	97	97
